Results as given in ChEMBL document CHEMBL5614448, “Current Trends in Psychedelic Science: Integrating Modified Lysergic Acid Derivatives and Psilocybin in Modern Medicine” (ACS Med Chem Lett, 2024).

Tests used:
[1] = molecular target: T1, 5-hydroxytryptamine receptor 2A (Homo sapiens, UniProt P28223); assay: Displacement of [125I]DOI from 5-HT2A receptor (unknown origin) assessed as inhibition constant
[2] = molecular target: T1, 5-hydroxytryptamine receptor 2A; assay: Activation of human 5-HT2A receptor
[3] = molecular target: T1, 5-hydroxytryptamine receptor 2A; assay: Activation of human 5-HT2A receptor assessed as maximal activation relative to control; details: filed as activator

T1 sequence (P28223 whole entry): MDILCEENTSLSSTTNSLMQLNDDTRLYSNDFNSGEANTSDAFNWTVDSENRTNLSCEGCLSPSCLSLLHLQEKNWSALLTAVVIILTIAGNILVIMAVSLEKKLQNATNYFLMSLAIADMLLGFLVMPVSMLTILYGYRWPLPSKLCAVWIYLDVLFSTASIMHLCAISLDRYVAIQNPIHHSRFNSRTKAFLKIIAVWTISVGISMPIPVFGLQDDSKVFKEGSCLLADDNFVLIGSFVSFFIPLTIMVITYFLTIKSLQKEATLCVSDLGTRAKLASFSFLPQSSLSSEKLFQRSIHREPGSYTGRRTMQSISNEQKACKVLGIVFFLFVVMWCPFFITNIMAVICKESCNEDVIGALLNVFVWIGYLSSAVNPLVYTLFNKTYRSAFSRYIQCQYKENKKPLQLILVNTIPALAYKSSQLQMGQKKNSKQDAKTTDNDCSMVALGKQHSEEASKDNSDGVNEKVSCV

Row | Compound | Ki [1] | EC50 [2] | max activation [3]
1 | C#CCN(CC)C(=O)[C@@H]1C=C2c3cccc4[nH]cc(c34)C[C@H]2N(C)C1 | 0.36 nM | 0.83 nM | 68%
2 | CN1C[C@H](C(=O)N(CCF)CC(F)F)C=C2c3cccc4[nH]cc(c34)C[C@H]21 | 0.43 nM | 0.25 nM | 78%
3 | CCN(CC(F)F)C(=O)[C@@H]1C=C2c3cccc4[nH]cc(c34)C[C@H]2N(C)C1 | 0.21 nM | 0.76 nM | 77%
4 | CCN(CC#N)C(=O)[C@@H]1C=C2c3cccc4[nH]cc(c34)C[C@H]2N(C)C1 | 0.19 nM | 0.88 nM | 68%
5 | CCN(CCF)C(=O)[C@@H]1C=C2c3cccc4[nH]cc(c34)C[C@H]2N(C)C1 | 0.34 nM | 0.43 nM | 69%
6 | C#CCN(C)C(=O)[C@@H]1C=C2c3cccc4[nH]cc(c34)C[C@H]2N(C)C1 | 0.54 nM | 0.98 nM | 70%
7 | CN1C[C@H](C(=O)N(CC(F)F)CC(F)F)C=C2c3cccc4[nH]cc(c34)C[C@H]21 | 0.33 nM | 0.9 nM | 82%
8 | CCN(CC(F)(F)F)C(=O)[C@@H]1C=C2c3cccc4[nH]cc(c34)C[C@H]2N(C)C1 | 0.45 nM | 3.2 nM | 82%
9 | CN(CC(F)(F)F)C(=O)[C@@H]1C=C2c3cccc4[nH]cc(c34)C[C@H]2N(C)C1 | 0.26 nM | 9.1 nM | 72%
